Results on 10 molecules are retold here after ChEMBL document CHEMBL3046164, “A facile synthesis of some 3-cyano-1,4,6-trisubstituted-2(1H)-pyridinones and their biological evaluation as anticancer agents” (2011).

Holding throughout (format): functional
The subject of assay [1] is SR. In words: Growth inhibition of Homo sapiens (human) SR cells at 10 uM after 48 hr by SRB assay. Particulars: read-out: GI. On the technique in general: Sulforhodamine B stains cellular protein and so reports cell mass.
For assay [2], the system named is HOP-92. In words: Growth inhibition of Homo sapiens (human) HOP92 cells at 10 uM after 48 hr by SRB assay. The following applies: HOP-92, 48 h, read-out: GI.
Assay [3] deals with BT-549. The assay is described as follows: Growth inhibition of Homo sapiens (human) BT549 cells at 10 uM after 48 hr by SRB assay. The following applies: BT-549, 48 h, read-out: GI.
Assay [4] relates to HL-60(TB). In words: Growth inhibition of Homo sapiens (human) HL-60(TB) cells at 10 uM after 48 hr by SRB assay. The following applies: HL-60, 48 h, read-out: GI.
Another assay has as its system MOLT-4. The assay is described as follows: Growth inhibition of Homo sapiens (human) MOLT4 cells at 10 uM after 48 hr by SRB assay. The following applies: MOLT-4, 48 h, read-out: GI.
For assay [5], the system named is RPMI-8226. In words: Growth inhibition of Homo sapiens (human) RPMI8226 cells at 10 uM after 48 hr by SRB assay. The following applies: RPMI-8226, 48 h, read-out: GI.
Another assay concerns NCI-H23. The assay is described as follows: Growth inhibition of Homo sapiens (human) NCI-H23 cells at 10 uM after 48 hr by SRB assay. Particulars: NCI-H23, 48 h, read-out: GI.
Assay [6] concerns CCRF-CEM. The assay is described as follows: Growth inhibition of Homo sapiens (human) CCRF-CEM cells at 10 uM after 48 hr by SRB assay. The following applies: read-out: GI.
The subject of another assay is K562. In words: Growth inhibition of Homo sapiens (human) K562 cells at 10 uM after 48 hr by SRB assay. The following applies: K562, 48 h, read-out: GI.
Another assay deals with PC-3. The assay is described as follows: Growth inhibition of Homo sapiens (human) PC3 cells at 10 uM after 48 hr by SRB assay. Particulars: PC-3, 48 h, read-out: GI.
The test system of another assay is T47D. In words: Cytotoxicity against Homo sapiens (human) T47D cells after 48 hr by SRB assay.
A further assay concerns EKVX. The assay is described as follows: Cytotoxicity against Homo sapiens (human) EKVX cells after 48 hr by SRB assay.
A further assay has as its system SNB-75. The assay is described as follows: Cytotoxicity against Homo sapiens (human) SNB75 cells after 48 hr by SRB assay. Particulars: SNB-75, 48 h.
For the next assay, the system named is IGROV-1. The assay is described as follows: Cytotoxicity against Homo sapiens (human) IGROV1 cells after 48 hr by SRB assay. The following applies: IGROV-1, 48 h.
Assay [7] has as its system SR. In words: Cytotoxicity against Homo sapiens (human) SR cells after 48 hr by SRB assay.
Assay [8] relates to RPMI-8226. The assay is described as follows: Cytotoxicity against Homo sapiens (human) RPMI8226 cells after 48 hr by SRB assay. The following applies: Homo sapiens, RPMI-8226, 48 h.
Another assay relates to UO-31. The assay is described as follows: Cytotoxicity against Homo sapiens (human) UO31 cells after 48 hr by SRB assay. Particulars: UO-31, 48 h.
The next assay has as its system MDA-MB-231. In words: Cytotoxicity against Homo sapiens (human) MDA-MB-231 cells after 48 hr by SRB assay. Particulars: MDA-MB-231, 48 h.
For the next assay, the system named is SF-539. The assay is described as follows: Cytotoxicity against Homo sapiens (human) SF539 cells after 48 hr by SRB assay. Particulars: SF-539, 48 h.
A further assay relates to OVCAR-3. In words: Cytotoxicity against Homo sapiens (human) OVCAR3 cells after 48 hr by SRB assay. Particulars: OVCAR-3, 48 h.
A further assay has as its system HCC 2998. In words: Cytotoxicity against Homo sapiens (human) HCC2998 cells after 48 hr by SRB assay. Particulars: HCC 2998, 48 h.
The next assay deals with SF-268. In words: Cytotoxicity against Homo sapiens (human) SF268 cells after 48 hr by SRB assay. The following applies: SF-268, 48 h.
In assay [9] the test system is HL-60(TB). The assay is described as follows: Cytotoxicity against Homo sapiens (human) HL-60(TB) cells after 48 hr by SRB assay. Particulars: HL-60, 48 h.
A further assay concerns HOP-62. The assay is described as follows: Cytotoxicity against Homo sapiens (human) HOP62 cells after 48 hr by SRB assay. The following applies: HOP-62, 48 h.
Assay [10] concerns CCRF-CEM. In words: Cytotoxicity against Homo sapiens (human) CCRF-CEM cells after 48 hr by SRB assay.
In another assay the test system is A498. In words: Cytotoxicity against Homo sapiens (human) A498 cells after 48 hr by SRB assay. The following applies: A498, 48 h.
Assay [11] concerns BT-549. The assay is described as follows: Cytotoxicity against Homo sapiens (human) BT549 cells after 48 hr by SRB assay. The following applies: BT-549, 48 h.
The test system of another assay is UACC-62. The assay is described as follows: Cytotoxicity against Homo sapiens (human) UACC62 cells after 48 hr by SRB assay. Particulars: UACC-62, 48 h.
In assay [12] the test system is HOP-92. The assay is described as follows: Cytotoxicity against Homo sapiens (human) HOP92 cells after 48 hr by SRB assay. Particulars: HOP-92, 48 h.
In a further assay the test system is OVCAR-4. The assay is described as follows: Cytotoxicity against Homo sapiens (human) OVCAR4 cells after 48 hr by SRB assay. The following applies: OVCAR-4, 48 h.

Turning to `COc1ccc(-c2cc(-c3cccn3C)c(C#N)c(=O)n2S(=O)(=O)c2ccccc2)cc1OC`, the inhibition of growth at 10 µM with SR [1] worked out at 31.4%; with HOP-92 [2] it was 25.8%; in the assay with BT-549 [3] it was 21%.
For the molecule `COc1ccc(-c2cc(-c3cccs3)n(S(=O)(=O)c3ccccc3)c(=O)c2C#N)cc1`, the inhibition of growth at 10 µM in the assay on HL-60(TB) [4] turned out to be 55%; with MOLT-4 it was 28.1%; in the assay with RPMI-8226 [5] it was 22%; with NCI-H23 it was 20%; in the assay on HOP-92 [2] it was 21.3%; with CCRF-CEM [6], 56.2%. In the assay with K562, the inhibition of growth at 10 µM worked out at 27.7%.
For `CC(=O)n1c(-c2ccc(Br)cc2)cc(-c2cccn2C)c(C#N)c1=O`, in the assay with HOP-92 [2], the inhibition of growth at 10 µM amounted to 24.6%.
For the molecule `COc1ccc(-c2cc(-c3cccn3C)c(C#N)c(=O)n2C(C)=O)cc1OC`, in the assay on K562, the inhibition of growth at 10 µM was 25.3%.
On to `COc1ccc(-c2cc(-c3cccs3)n(C(C)=O)c(=O)c2C#N)cc1`, for which the inhibition of growth at 10 µM in the assay on SR [1] came to 30.5%; with HOP-92 [2], 29.6%.
Consider `Cc1nnc2c(C#N)c(-c3cccn3C)cc(-c3ccc(Br)cc3)n12`, for which the inhibition of growth at 10 µM in the assay with PC-3 was 24%; with RPMI-8226 [5] it was 43.2%; with HOP-92 [2], 30%; in the assay with CCRF-CEM [6], 66%.
As for `COc1ccc(-c2cc(-c3cccs3)n3c(C)nnc3c2C#N)cc1`, in the assay on HOP-92 [2], the inhibition of growth at 10 µM was 23.5%.
The GI50 is the concentration at which growth is held to half of that of the control. `Cn1cccc1-c1cc(-c2ccc(Br)cc2)[nH]c(=O)c1C#N`: the 50% growth inhibitory concentration (GI50) is greater than 100 µM with T47D; 27.5 µM in the assay on EKVX; 25.7 µM with SNB-75; 77.6 µM in the assay on IGROV-1; greater than 100 µM in the assay with SR [7]; 57.5 µM with RPMI-8226 [8]. Also, the GI50 in the assay with UO-31 is 69.2 µM; in the assay on MDA-MB-231, 83.2 µM; in the assay on SF-539 it was 89.1 µM; in the assay on OVCAR-3, 85.1 µM; in the assay with HCC 2998, greater than 100 µM; in the assay with SF-268, greater than 100 µM. The GI50 was greater than 100 µM in the assay on HL-60(TB) [9]; 34.7 µM with HOP-62; 47.3 µM in the assay on CCRF-CEM [10]; 54.9 µM in the assay on A498; 85.1 µM in the assay on BT-549 [11]; 48.9 µM in the assay on UACC-62. Besides, the GI50 with HOP-92 [12] and with OVCAR-4 was greater than 100 µM throughout.
As a reminder, the TGI is the concentration giving total growth inhibition. Low values mean greater sensitivity of the cells, high ones lower sensitivity of the cells. Turning to `COc1ccc(-c2cc(-c3cccn3C)c(C#N)c(=O)[nH]2)cc1OC`, the GI50 with T47D came to 34.7 µM; in the assay on EKVX it was 0.05 µM; with SNB-75, 23.9 µM; in the assay with IGROV-1 it was 91.2 µM; in the assay with SR [7], 0.48 µM; with RPMI-8226 [8], 22.9 µM. Also, the GI50 was 85.1 µM in the assay with UO-31; greater than 100 µM in the assay with MDA-MB-231; 67.6 µM in the assay on SF-539; greater than 100 µM in the assay on OVCAR-3; 89.1 µM in the assay with HCC 2998; greater than 100 µM in the assay with SF-268. Moreover, the GI50 in the assay on HL-60(TB) [9] was greater than 100 µM; with HOP-62 it was 30.9 µM; with CCRF-CEM [10] it was 5.01 µM; with A498, 56.2 µM; in the assay with BT-549 [11] it was greater than 100 µM; with UACC-62, 66.1 µM. The GI50 with HOP-92 [12] and in the assay with OVCAR-4 was greater than 100 µM in each case. In the assay on EKVX, this molecule gave a TGI of 9.77 µM.
With `COc1ccc(-c2cc(-c3cccs3)[nH]c(=O)c2C#N)cc1`, the GI50 with T47D was greater than 100 µM; in the assay on EKVX, greater than 100 µM; in the assay with SNB-75, 39.8 µM; in the assay with IGROV-1, greater than 100 µM; with SR [7] it was 60.2 µM; in the assay with RPMI-8226 [8], 22.4 µM. Also, the GI50 in the assay with UO-31, in the assay on MDA-MB-231, in the assay with SF-539, with OVCAR-3, with HCC 2998 and with SF-268 was greater than 100 µM each time. Also, the GI50 was 45.7 µM with HL-60(TB) [9]; greater than 100 µM in the assay with HOP-62; 23.4 µM with CCRF-CEM [10]; greater than 100 µM with A498; greater than 100 µM in the assay with BT-549 [11]; greater than 100 µM with UACC-62. For the same molecule, the GI50 with HOP-92 [12] was greater than 100 µM; in the assay with OVCAR-4 it was 69.2 µM.
